Patent publication US20050171171A1, “Amide derivatives as FLT-3 modulators” (Ambit Biosciences Corporation, priority 2003, published 2005)

Tests used:
[1] = target: T1, FLT3(JMminus) (Homo sapiens, UniProt P36888); experiment: Binding Assay: FLT3(JMminus), phage-displayed kinase competition binding (Kd)
T1 construct: "FLT 3(JMminus)"; fused on or other part: Fused to a T7 bacteriophage particle (phage display)
T1 sequence (P36888 610-943 limits assumed): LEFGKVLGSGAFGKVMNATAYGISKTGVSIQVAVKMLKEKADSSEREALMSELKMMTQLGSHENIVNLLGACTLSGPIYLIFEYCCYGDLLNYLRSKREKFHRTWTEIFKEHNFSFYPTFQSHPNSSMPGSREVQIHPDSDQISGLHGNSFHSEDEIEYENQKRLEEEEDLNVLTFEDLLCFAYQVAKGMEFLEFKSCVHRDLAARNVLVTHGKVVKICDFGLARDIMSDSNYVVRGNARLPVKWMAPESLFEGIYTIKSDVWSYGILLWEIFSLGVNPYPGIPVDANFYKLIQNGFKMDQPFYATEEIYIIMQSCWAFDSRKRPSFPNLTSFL
Description: (§1) Binding Constant (Kd) Measurements for Small-Molecule-Kinase Interactions
(§2) The term “ND” represents non-determined values.

[2] = Cell Assay: CS0002; assay type: cell-based
[3] = test system: MV4,11 cells; experiment: Cell Assay: CS0001, FLT3 assay using MV4,11 cells (MTS proliferation); assay type: cell-based; details: Homo sapiens
Procedure: The ability of FLT3 kinase inhibitors to inhibit cellular proliferation was also examined. MV4:11 was a cell line derived from a patient with acute myelogenous leukemia. It expressed a mutant FLT3 protein that was constitutively active. […] Inhibition of FLT3 kinase activity prevented proliferation of these cells, and thus the MV4:11 cell line can be used a model for cellular activity of small molecule inhibitors of FLT3.
FLT3 Assay Using MV4,11 Cells
MV4,11 cells were grown in an incubator @ 37° C. in 5% CO2 in Medium 2 (RPM 10% FBS, 4 mM glutamine, Penn/Strep). The cells were counted daily and the cell density was kept between 1e5 and 8e5 cells/ml.
Day One: Enough cells were harvested for experiments to be conducted in 50 ml conical tubes. The harvested cells were spun at 500 g for 5 min at 4° C., the supernatant was then aspirated and the cells were resuspended in the starting volume of 1× PBS. The cells were again spun at 500 g for 5 min at 4° C. and the supernatant again aspirated. The cells were then resuspended in medium 3 (DMEM w/glut, 10% FBS, Penn/Strep) to a density of 4e5 cells/ml and incubated @ 37° C. in 5% CO2 O/N.
Day Two: The cells were counted and enough medium 3 was added to decrease density to 2e5 cells/ml. 50 ul (10,000 cells) was aliquoted into each well of a 96 well optical plate using multichannel pipetman. The compound plate was then set up by aliquoting 3 μl of negative control (DMSO) into column 1 of a 96 well 300 ul polypropylene plate, aliquoting 3 μl of positive control (10 mM AB20121) into column 12 of plate, and aliquoting 3 μl of appropriate compounds from serial dilutions into columns 2-11. To each well, 150 μl of Medium 3 was added and 50 μl of compound/medium mixture from compound plate into rows of optical plate in duplicate. The cells were then incubated @ 37° C. in 5% CO2 for 3 days.
Day Five: MTS was thawed in a H2O bath. 20 μl of MTS was added to each well of optical plate and the cells were incubated @ 37° C. in 5% CO2 for 2 hours. The plate was then placed on a plate shaker for 30 seconds on high speed.

[4] = target: T2, FLT3(DKIN) (Homo sapiens, UniProt P36888); experiment: Binding Assay: FLT3(DKIN), phage-displayed kinase competition binding (Kd)
T2 construct: 3(DKIN); made in house
T2 sequence (P36888 610-943 limits assumed): T1 sequence (P36888 610-943 limits assumed)
Description: as §1, §2

SMILES	Kd [1]	IC50 [2]	IC50 [3]	Kd [4]
CC(C)(C)c1cc(NC(=O)Cc2ccc(NC(=O)c3cccc4cccnc34)cc2)no1	0.1 to 1 µM	> 10 µM	1 to 10 µM	–
Cc1nn(C)c(Cl)c1C(=O)Nc1ccc(CC(=O)Nc2cc(C(C)(C)C)on2)cc1	< 0.1 µM	> 10 µM	0.1 to 1 µM	–
CSc1ncc(Br)c(C(=O)Nc2ccc(CC(=O)Nc3cc(C(C)(C)C)on3)cc2)n1	< 0.1 µM	> 10 µM	< 0.1 µM	–
CC(C)(C)c1cc(NC(=O)Cc2ccc(NC(=O)c3cnc4ccccc4c3)cc2)no1	< 0.1 µM	> 10 µM	< 0.1 µM	–
Cc1csc(NC(=O)Cc2ccc(OCc3ccccc3)cc2)n1	–	–	–	> 10 µM
O=C(Cc1ccc(OCc2ccccc2)cc1)Nc1nc2ccc(F)cc2s1	–	–	–	> 10 µM
CC(C)(C)c1cc(NC(=O)Cc2ccc(NC(=O)c3ccc4cnccc4n3)cc2)no1	< 0.1 µM	> 10 µM	< 0.1 µM	–
CC(C)(C)c1cc(-c2nc(-c3ccc(OCc4ccccc4F)cc3)no2)no1	–	–	0.1 to 1 µM	> 10 µM
O=C(Cc1ccc(OCc2ccccc2)cc1)Nc1nc2ccccc2s1	–	–	–	> 10 µM
CC(C)(C)c1cc(C(=O)Nc2ccc(OCC3CC3)cc2)no1	–	–	1 to 10 µM	> 10 µM
Cc1cc(C)n(C(=O)Nc2ccc(Cl)cc2)n1	–	–	> 10 µM	> 10 µM
CC(C)(C)c1cc(-c2nc(-c3ccc(O)cc3)no2)no1	–	–	1 to 10 µM	> 10 µM
O=C(Cc1ccc(OCc2ccccc2)cc1)Nc1nc(-c2ccc(Cl)cc2)cs1	–	–	–	> 10 µM
Cc1noc(-c2ccc(-c3noc(-c4cc(C(C)(C)C)on4)n3)cc2)n1	–	–	> 10 µM	> 10 µM
Cn1cc(C(=O)Nc2ccc(CC(=O)Nc3cc(C(C)(C)C)on3)cc2)c2ccccc21	< 0.1 µM	> 10 µM	< 0.1 µM	–
Cc1ccc(NC(=O)c2ccc(-c3noc(-c4cc(C(C)(C)C)on4)n3)cc2)cc1	–	–	0.1 to 1 µM	> 10 µM

Further lines, results first:

Kd [1]	IC50 [2]	IC50 [3]	Kd [4]	SMILES
–	–	–	< 0.1 µM	CC(C)(C)c1cc(NC(=O)Cc2ccc(Br)cc2)on1
–	–	> 10 µM	> 10 µM	CC(C)(C)c1cc(-c2nc(-c3ccc(Cl)cc3)no2)no1
–	–	–	> 10 µM	COc1cccc2sc(NC(=O)Cc3ccc(OCc4ccccc4)cc3)nc12
–	–	–	< 0.1 µM	CC(C)(C)c1cc(NC(=O)Cc2ccc(Cl)cc2)on1
–	–	–	< 0.1 µM	COc1ccc(CC(=O)Nc2cc(C(C)(C)C)no2)cc1
–	–	–	> 10 µM	Cc1cnc(NC(=O)Cc2ccc(OCc3ccccc3)cc2)s1
–	–	< 0.1 µM	< 0.1 µM	CC(C)(C)c1cc(NC(=O)Cc2ccc(OCc3ccccc3)cc2)on1
–	–	–	< 0.1 µM	CC(C)(C)c1cc(NC(=O)Cc2ccc(F)cc2)on1
–	–	–	1 to 10 µM	COc1ccc(SC(=O)Nc2cc(C(C)(C)C)on2)cc1
–	–	1 to 10 µM	1 to 10 µM	CC(C)(C)c1cc(/C=N/C(=N\O)c2ccc(Cl)cc2)no1
–	–	–	0.1 to 1 µM	O=C(Cc1ccc(OCc2ccccc2)cc1)Nc1cc(C2CC2)nn1-c1ccccc1
–	–	–	0.1 to 1 µM	CC(C)(C)c1cc(NC(=O)Cc2ccc(O)cc2)no1
–	–	–	1 to 10 µM	COc1ccc(CC(=O)Nc2cc(C3CC3)nn2-c2ccccc2)cc1
–	–	–	1 to 10 µM	CC(C)(C)c1cc(NC(=O)Sc2ccc(Cl)cc2)no1
–	–	–	0.1 to 1 µM	O=C(Cc1ccc(OCc2ccccc2)cc1)Nc1nc2cc(Cl)ccc2o1
–	–	1 to 10 µM	1 to 10 µM	CC(C)(C)c1cc(C(=O)Nc2ccc(OCc3ccccc3F)cc2)no1
